pEC50, pIC50: −log10 of the molar value. Like-named read-outs stand apart in the source and are kept apart here.
What was measured:
[1] = molecular target: recombinant SARS-CoV-2 Main protease (Mpro) (Severe acute respiratory syndrome coronavirus 2 (2019-nCoV) (SARS-CoV-2), UniProt P0DTD1); assay: Cov Mpro Biochemical IC50 Assay; conditions: read-out: MPro IC50
[2] = tested on: SARS-CoV-2-NLuc; assay: microbe, parasite or virus in culture; assay type: cell-based, SARS Coronavirus 2
[3] = recombinant SARS-CoV-2 Mpro 7.5 nM, fluorogenic peptide substrate 40 μM
[4] = Severe acute respiratory syndrome coronavirus, 48 h, read-out: MPro EC50
[5] = recombinant SARS-CoV-2 Mpro, fluorogenic peptide substrate

Compound	pIC50 [1, 3]	pEC50 [2, 4]	pIC50 [1, 5]	pEC50 ([2]; Severe acute respiratory syndrome coronavirus, 48 h; read-out: MPro EC50)
COc1cc(-c2cc3[nH]c(=O)n(-c4cncc5sc(C(N)=O)c(C)c45)c(=O)c3s2)c(Cl)cc1F [Example 1049]	8.50	7.39	–	–
COc1cccc(C(N)=O)c1-c1ccc2c(=O)n(-c3cncc4ccccc34)c(=O)[nH]c2c1 [Example 72]	–	< 4.30	5.09	–
COc1ccc(Cl)c(-c2cc3[nH]c(=O)n(-c4cncc5cccc(C)c45)c(=O)c3s2)c1 [Example 559]	8.21	8.04	–	–
O=c1c2sc(-c3ccccc3Cl)cc2n(CC2CCOCC2)c(=O)n1-c1cncc2ccccc12 [Example 120, 6-(2-chlorophenyl)-3-(isoquinolin-4-yl)-1-((tetrahydro-2H-pyran-4-yl)methyl)thieno[3,2-d]pyrimidine-2,4(1H,3H)-dione]	–	6.56	7.01	–
O=c1[nH]c2cc(-c3c(Cl)cccc3-c3ccnnc3)sc2c(=O)n1-c1cncc2ccccc12 [Example 112]	–	7.41	8.28	–
COc1cc(-c2cc3[nH]c(=O)n(-c4cncc5cc(C(C)(C)O)sc45)c(=O)c3s2)c(Cl)cc1F [Example 513]	8.14	7.34	–	–
COc1cc(-c2cc3c(s2)c(=O)n(-c2cncc4cnn(C)c24)c(=O)n3CCO)c(Cl)cc1F [Example 1070]	7.70	7.51	–	–
O=c1[nH]c2cc(-c3ccccc3Cl)sc2c(=O)n1-c1cnccc1N1CCNCC1 [Example 115, 6-(2-chlorophenyl)-3-(4-(piperazin-1-yl)pyridin-3-yl)thieno[3,2-d]pyrimidine-2,4(1H,3H)-dione]	–	–	6.28	5.82
N#CCCn1c(=O)n(-c2cncc3nnn(C4CC4)c23)c(=O)c2sc(-c3ccc(F)cc3Cl)cc21 [Example 883]	7.52	6.63	–	–
COc1cc(-c2cc3c(s2)c(=O)n(-c2cncc4cccc(Cl)c24)c(=O)n3CCC#N)c(Cl)cc1F [Example 921]	8.85	8.72	–	–
Cc1nn(C)cc1-c1cccc(Cl)c1-c1cc2[nH]c(=O)n(-c3cncc4ccccc34)c(=O)c2s1 [Example 518, 6-[2-chloro-6-(1,3-dimethylpyrazol-4-yl)phenyl]-3-(4-isoquinolyl)-1H-thieno[3,2-d]pyrimidine-2,4-dione]	8.04	8.26	–	–
COc1ccc(Cl)c(-c2ccc3c(=O)n(-c4cncc5ccc(N6CCC(F)(F)C6)cc45)c(=O)[nH]c3c2)c1 [Example 407]	7.10	6.73	–	–
CC(C)c1cncc(-n2c(=O)[nH]c3cc(-c4ccccc4Cl)sc3c2=O)c1 [Example 376]	–	4.33	4.36	–
O=c1[nH]c2cc(-c3ccccc3Cl)ccc2c(=O)n1-c1cncc2ccccc12 [Example 73, 7-(2-chlorophenyl)-3-(isoquinolin-4-yl)quinazoline-2,4(1H,3H)-dione]	–	6.58	6.80	–
O=c1[nH]c2cc(-c3cccc4c3CCC4)sc2c(=O)n1-c1cncc2ccccc12 [Example 168, 6-(2,3-dihydro-1H-inden-4-yl)-3-(isoquinolin-4-yl)thieno[3,2-d]pyrimidine-2,4(1H,3H)-dione]	–	6.09	6.21	–
Cc1c(-c2cccc(Cl)c2-c2cc3[nH]c(=O)n(-c4cncc5ccccc45)c(=O)c3s2)cn2ncnc2c1C [Example 114]	–	7.35	7.96	–
COc1cc(-c2cc3c(s2)c(=O)n(-c2cncc4ccccc24)c(=O)n3CCC#N)c(C#N)cc1F [Example 1001, 2-(1-(2-cyanoethyl)-3-(isoquinolin-4-yl)-2,4-dioxo-1,2,3,4-tetrahydrothieno[3,2-d]pyrimidin-6-yl)-5-fluoro-4-methoxybenzonitrile]	8.30	8.51	–	–
Cn1cc2ccc(-c3cccc(Cl)c3-c3ccc4c(=O)n(-c5cncc6ccccc56)c(=O)[nH]c4c3)cc2n1 [Example 248]	–	7.40	7.06	–
Cc1ncc(-c2cccc(Cl)c2-c2cc3[nH]c(=O)n(-c4cncc5ccccc45)c(=O)c3s2)n1C [Example 521]	7.83	6.89	–	–

— patent publication US20240116946A1 (Gilead Sciences, Inc., priority 2022, published 2024)
